These results are taken from publication PMC7151078, “A Novel NMDA Receptor Antagonist Protects against Cognitive Decline Presented by Senescent Mice” (Pharmaceutics, 2020).

A short description of data set [1]: Microsomal stability in rat microsomes. It counts as in vitro ADME. To be noted: 37 °C, 0-60 min. As to the method:
The human, rat, and mice microsomes employed were purchased from Tebu-Xenotech. The compound was incubated at 37 °C with the microsomes in a 50 mM phosphate buffer (pH = 7.4) containing 30 mM MgCl2, 10 mM NADP, 100 mM glucose-6-phosphate and 20 U/mL glucose-6-phosphate-dehydrogenase. Samples (75 µL) were taken from each well at 0, 10, 20, 40, and 60 min and transferred to a plate containing 4 °C 75 µL acetonitrile. Then, 30 µL of 0.5% formic acid in water was added to improve the chromatographic conditions. The plate was centrifuged (46,000× g, 30 min) and supernatants were taken and analyzed in a UPLC-MS/MS (Xevo-TQD, Waters) by employing a BEH C18 column and an isocratic gradient of 0.1% formic acid in water: 0.1% formic acid acetonitrile (60:40) for 5 minutes and a flow of 0.25 mL/min. The metabolic stability of the compounds was calculated from the logarithm of remaining compounds at each time point studied.

For data set [2], the system named is SAMR1 and SAMP8 mice. The data set is described as follows: Hippocampal protein levels by Western blotting. It counts as in vivo, mouse. The conditions noted are these: hippocampus. As to the method:
Male SAMR1 and SAMP8 mice (n = 41) with 20-weeks-old were used to carry out cognitive and molecular analysis. The animals were randomly divided into four groups: SAMR1 control (SR1 Ct) group (n = 11), SAMP8 control (SP8 Ct) group (n = 8), SAMR1 treated with RL-208 (SR1 RL-208 (5 mg/Kg)) group (n = 10) and SAMP8 treated with RL-208 (SP8 RL-208 (5 mg/Kg)) group (n = 12). Animals had free access to food and water, under standard temperature conditions (22±2 °C) and 12h:12h light-dark cycles (300 lux/0 lux). RL-208, (3,4,8,9-tetramethyltetracyclo[4.4.0.0^3,9.0^4,8]dec-1-yl)-methylamine hydrochloride, (5 mg/kg/day) was administered through drinking water for four weeks before starting the cognitive test. RL-208 was administered up to euthanasia (Figure 1A). Water consumption was controlled each week for each cage and strain. Afterwards, RL-208 concentration was adjusted accordingly to reach the optimal dose for each cage. Three days after the behavioural and cognitive tests, mice were euthanized by cervical dislocation. Brains were immediately removed from the skull. The hippocampus and cortex were then isolated and frozen in powdered dry ice. They were maintained at −80 °C for further use. Tissue samples were homogenized in lysis buffer containing phosphatase and protease inhibitors (Cocktail II, Sigma). Total protein levels were obtained, and protein concentration was determined by the method of Bradford. For Western blotting (WB), aliquots of 15 μg of hippocampal protein extraction per sample were used. Protein samples were separated by Sodium dodecyl sulphate-Polyacrylamide gel electrophoresis (SDS-PAGE) (8–20%) and transferred onto Polyvinylidene difluoride (PVDF) membranes (Millipore). Afterwards, membranes were blocked in 5% non-fat milk in Tris-buffered saline (TBS) solution containing 0.1% Tween 20 TBS (TBS-T) for 1 hour at room temperature, followed by overnight incubation at a 4 °C with the primary antibodies listed in Table S1. Then, membranes were washed and incubated with secondary antibodies for 1 hour at room temperature. Immunoreactive proteins were viewed with the chemiluminescence-based detection kit, following the manufacturer’s protocol (ECL Kit, Millipore), and digital images were acquired using ChemiDoc XRS+ System (BioRad). Semi-quantitative analyses were performed using ImageLab software (BioRad), and results were expressed in arbitrary units (AU), considering control protein levels as 100%. Protein loading was routinely monitored by immunodetection of Glyceraldehyde-3-phosphate dehydrogenase (GAPDH).

Data set [3] concerns SAMR1 and SAMP8 mice. Kind of data set: proBDNF and mBDNF protein levels in the hippocampus (ELISA). It counts as in vivo, mouse. As to the method:
Male SAMR1 and SAMP8 mice (n = 41) with 20-weeks-old were used to carry out cognitive and molecular analysis. The animals were randomly divided into four groups: SAMR1 control (SR1 Ct) group (n = 11), SAMP8 control (SP8 Ct) group (n = 8), SAMR1 treated with RL-208 (SR1 RL-208 (5 mg/Kg)) group (n = 10) and SAMP8 treated with RL-208 (SP8 RL-208 (5 mg/Kg)) group (n = 12). Animals had free access to food and water, under standard temperature conditions (22±2 °C) and 12h:12h light-dark cycles (300 lux/0 lux). RL-208, (3,4,8,9-tetramethyltetracyclo[4.4.0.0^3,9.0^4,8]dec-1-yl)-methylamine hydrochloride, (5 mg/kg/day) was administered through drinking water for four weeks before starting the cognitive test. RL-208 was administered up to euthanasia (Figure 1A). Water consumption was controlled each week for each cage and strain. Afterwards, RL-208 concentration was adjusted accordingly to reach the optimal dose for each cage. Three days after the behavioural and cognitive tests, mice were euthanized by cervical dislocation. Brains were immediately removed from the skull. The hippocampus and cortex were then isolated and frozen in powdered dry ice. They were maintained at −80 °C for further use. Tissue samples were homogenized in lysis buffer containing phosphatase and protease inhibitors (Cocktail II, Sigma). Total protein levels were obtained, and protein concentration was determined by the method of Bradford. The hippocampal determination of pro-Brain-derived neurotrophic factor (proBDNF) and mature brain-derived neurotrophic factor (mBDNF) protein levels was performed using the enzyme-linked immunosorbent assay (ELISA) kit (Biosensis) according to the manufacturer’s instructions.

The test system of a further data set is NMDAR. The arrangement: method as in PMID 29767953. To be noted: early preclinical in vitro experiments; cited from earlier work.

pIC50: −log10 of the molar value.

For `CC12CC3CC1(C)C1(C)CC3(CN)CC21C.Cl` [RL-208, (3,4,8,9-tetramethyltetracyclo [4.4.0.0^3,9.0^4,8]dec-1-yl)methylamine hydrochloride], in data set [1], the microsomal stability entry is “good”. In the data set on SAMR1 and SAMP8 mice [2] (RL-208 treated mice), the PSD95 protein levels result was “augmented but did not reach significance in SP8 mice” and the “Synaptophysin (SYN) protein levels” value was “significant increase”. In addition, the ADAM10 protein levels entry in the data set on SAMR1 and SAMP8 mice [2] (SAMP8) is recorded as “prevented the loss”. Moreover, in the data set on SAMR1 and SAMP8 mice [2] (SP8 RL-208), the SNAP25 protein levels result was “significant-high”. Further, in the data set with SAMR1 and SAMP8 mice [2] (SP8 RL-208 vs control group), the “CDK5 activation (p-CDK5/CDK5 ratio)” value was “significantly reduced” and the p25/p35 ratio entry is recorded as “significantly reduced”. In the data set on SAMR1 and SAMP8 mice [2] (SP8 mice, not in SR1), the GPX1 protein levels entry was “increased, in a significant way” and the SOD1 protein levels result is listed as “increased, in a significant way”. Moreover, in the data set on SAMR1 and SAMP8 mice [2] (SP8 strain, not in SR1), the “120BPD (Spectrin breakdown product)” value is given as “reduced”, the Calpain-1 protein levels result was “reduced” and the Caspase-3 protein levels result is “reduced”. Further, the TrkB-FL protein levels entry in the data set with SAMR1 and SAMP8 mice [2] (both SR1 and SP8) is “increased significantly”. Also, in the data set with SAMR1 and SAMP8 mice [2] (both strains), the “p-NMDAR (Tyr1472) protein levels” value is “increased in a significant way”. In addition, the “Tau phosphorylation (Ser396)” value with SAMR1 and SAMP8 mice [2] (both treated mice groups) was “significant reduction”. Also, in the data set on SAMR1 and SAMP8 mice [2] (neither in SR1 nor in SP8), the NMDAR2A protein levels result is recorded as “did not produce significant differences”. For the same compound, the TrkB-ICD protein levels entry with SAMR1 and SAMP8 mice [2] (treated mice) is reported as “reduced”. For the same compound, the “mature BDNF protein levels” value in the data set on SAMR1 and SAMP8 mice [3] (RL-208 treated mice vs control groups) is “significant augment”. Moreover, in the data set on SAMR1 and SAMP8 mice [3] (SP8 treated vs control), the proBDNF protein levels result is on record as “significant reduction”. Also, the “proBDNF protein levels (differences)” value in the data set on SAMR1 and SAMP8 mice [3] (SR1 strain) is recorded as “not significant”. Also, the negative logarithm of the IC50 (pIC50) with NMDAR is around 6.00.
